Measured values taken from ChEMBL document CHEMBL3885881, “DrugMatrix”.

Species: Rattus norvegicus
Experiment: DrugMatrix - Regimen: Daily Repeat
Assay type: toxicity, organism-based, Sprague-Dawley
Parameters: regimen Daily Repeat, gender Male, age 6-8 weeks
Conditions: in vivo, po, route oral GAVAGE, vehicle .5 % CMC; for BASOPHIL / EOSINOPHIL / ERYTHROCYTE COUNT / HEMATOCRIT / HEMOGLOBIN / LEUKOCYTE COUNT / LYMPHOCYTE / MEAN CORPUSCULAR HEMOGLOBIN / MEAN CORPUSCULAR HEMOGLOBIN CONCENTRATION / MEAN CORPUSCULAR VOLUME / MONOCYTE / NEUTROPHIL / PLATELET COUNT: tissue Blood; for ALANINE AMINOTRANSFERASE / ALBUMIN / ALKALINE PHOSPHATASE / ASPARTATE AMINOTRANSFERASE / BLOOD UREA NITROGEN / CHLORIDE / CHOLESTEROL / CREATINE PHOSPHOKINASE / CREATININE / GLUCOSE / PHOSPHORUS / POTASSIUM / SODIUM / TOTAL BILIRUBIN / TOTAL PROTEIN: tissue Plasma
[1] = 0 mg/kg, 72 h, dose level Control, time 3 day
[2] = 0 mg/kg, 120 h, dose level Control, time 5 day
[3] = 50 mg/kg, 72 h, dose level Low, time 3 day
[4] = 50 mg/kg, 120 h, dose level Low, time 5 day
[5] = 1000 mg/kg, 72 h, dose level High, time 3 day
[6] = 1000 mg/kg, 120 h, dose level High, time 5 day

CC(C)NCC(O)COc1ccc(CC(N)=O)cc1 (stereo not drawn) [ATENOLOL]
BASOPHIL [1]: 0%
EOSINOPHIL [1]: 0.33%
ERYTHROCYTE COUNT [1]: 6.2 x10E6/uL
HEMATOCRIT [1]: 38.08%
HEMOGLOBIN [1]: 14.92 G/DL
LEUKOCYTE COUNT [1]: 11.13 x10E3/uL
LYMPHOCYTE [1]: 76%
MEAN CORPUSCULAR HEMOGLOBIN [1]: 24.1 pg
MEAN CORPUSCULAR HEMOGLOBIN CONCENTRATION [1]: 39.17 G/DL
MEAN CORPUSCULAR VOLUME [1]: 61.48 fL
MONOCYTE [1]: 3.83%
NEUTROPHIL [1]: 19.83%
PLATELET COUNT [1]: 1327.5 x10E3/uL
ALANINE AMINOTRANSFERASE [1]: 40.17 u/L
ALBUMIN [1]: 4.07 G/DL
ALKALINE PHOSPHATASE [1]: 372 u/L
ASPARTATE AMINOTRANSFERASE [1]: 67.17 u/L
BLOOD UREA NITROGEN [1]: 18.83 mg/dL
CHLORIDE [1]: 105.17 MEQ/L
CHOLESTEROL [1]: 78.17 mg/dL
CREATINE PHOSPHOKINASE [1]: 149.17 u/L
CREATININE [1]: 0.57 mg/dL
GLUCOSE [1]: 185.17 mg/dL
PHOSPHORUS [1]: 11.43 mg/dL
POTASSIUM [1]: 6.78 MEQ/L
SODIUM [1]: 152.83 MEQ/L
TOTAL BILIRUBIN [1]: 0.4 mg/dL
TOTAL PROTEIN [1]: 6.87 G/DL
BASOPHIL [2]: 0%
EOSINOPHIL [2]: 0%
ERYTHROCYTE COUNT [2]: 6.05 x10E6/uL
HEMATOCRIT [2]: 36.55%
HEMOGLOBIN [2]: 14.7 G/DL
LEUKOCYTE COUNT [2]: 11.8 x10E3/uL
LYMPHOCYTE [2]: 86.83%
MEAN CORPUSCULAR HEMOGLOBIN [2]: 24.37 pg
MEAN CORPUSCULAR HEMOGLOBIN CONCENTRATION [2]: 40.32 G/DL
MEAN CORPUSCULAR VOLUME [2]: 60.47 fL
MONOCYTE [2]: 0.83%
NEUTROPHIL [2]: 12.33%
PLATELET COUNT [2]: 1177 x10E3/uL
ALANINE AMINOTRANSFERASE [2]: 41.83 u/L
ALBUMIN [2]: 3.75 G/DL
ALKALINE PHOSPHATASE [2]: 377.5 u/L
ASPARTATE AMINOTRANSFERASE [2]: 60.83 u/L
BLOOD UREA NITROGEN [2]: 16 mg/dL
CHLORIDE [2]: 105.67 MEQ/L
CHOLESTEROL [2]: 67.83 mg/dL
CREATINE PHOSPHOKINASE [2]: 120.33 u/L
CREATININE [2]: 0.6 mg/dL
GLUCOSE [2]: 167.67 mg/dL
PHOSPHORUS [2]: 10.03 mg/dL
POTASSIUM [2]: 6.68 MEQ/L
SODIUM [2]: 150.5 MEQ/L
TOTAL BILIRUBIN [2]: 0.57 mg/dL
TOTAL PROTEIN [2]: 6.25 G/DL
BASOPHIL [3]: 0%
EOSINOPHIL [3]: 0%
ERYTHROCYTE COUNT [3]: 5.54 x10E6/uL
HEMATOCRIT [3]: 35.3%
HEMOGLOBIN [3]: 13.9 G/DL
LEUKOCYTE COUNT [3]: 9.75 x10E3/uL
LYMPHOCYTE [3]: 86%
MEAN CORPUSCULAR HEMOGLOBIN [3]: 25.1 pg
MEAN CORPUSCULAR HEMOGLOBIN CONCENTRATION [3]: 39.35 G/DL
MEAN CORPUSCULAR VOLUME [3]: 63.75 fL
MONOCYTE [3]: 1%
NEUTROPHIL [3]: 13%
PLATELET COUNT [3]: 1258 x10E3/uL
ALANINE AMINOTRANSFERASE [3]: 34.5 u/L
ALBUMIN [3]: 3.75 G/DL
ALKALINE PHOSPHATASE [3]: 332 u/L
ASPARTATE AMINOTRANSFERASE [3]: 57 u/L
BLOOD UREA NITROGEN [3]: 18 mg/dL
CHLORIDE [3]: 106 MEQ/L
CHOLESTEROL [3]: 83 mg/dL
CREATINE PHOSPHOKINASE [3]: 110 u/L
CREATININE [3]: 0.55 mg/dL
GLUCOSE [3]: 164.5 mg/dL
PHOSPHORUS [3]: 11.45 mg/dL
POTASSIUM [3]: 6.45 MEQ/L
SODIUM [3]: 152 MEQ/L
TOTAL BILIRUBIN [3]: 0.3 mg/dL
TOTAL PROTEIN [3]: 6.2 G/DL
BASOPHIL [4]: 0%
EOSINOPHIL [4]: 0%
ERYTHROCYTE COUNT [4]: 5.99 x10E6/uL
HEMATOCRIT [4]: 36.17%
HEMOGLOBIN [4]: 14.4 G/DL
LEUKOCYTE COUNT [4]: 11.97 x10E3/uL
LYMPHOCYTE [4]: 88%
MEAN CORPUSCULAR HEMOGLOBIN [4]: 24.03 pg
MEAN CORPUSCULAR HEMOGLOBIN CONCENTRATION [4]: 39.8 G/DL
MEAN CORPUSCULAR VOLUME [4]: 60.4 fL
MONOCYTE [4]: 1.67%
NEUTROPHIL [4]: 10.33%
PLATELET COUNT [4]: 1118 x10E3/uL
ALANINE AMINOTRANSFERASE [4]: 39.67 u/L
ALBUMIN [4]: 3.6 G/DL
ALKALINE PHOSPHATASE [4]: 354.33 u/L
ASPARTATE AMINOTRANSFERASE [4]: 60.33 u/L
BLOOD UREA NITROGEN [4]: 14 mg/dL
CHLORIDE [4]: 104.67 MEQ/L
CHOLESTEROL [4]: 72 mg/dL
CREATINE PHOSPHOKINASE [4]: 115 u/L
CREATININE [4]: 0.53 mg/dL
GLUCOSE [4]: 172.33 mg/dL
PHOSPHORUS [4]: 10.87 mg/dL
POTASSIUM [4]: 6.93 MEQ/L
SODIUM [4]: 150.33 MEQ/L
TOTAL BILIRUBIN [4]: 0.3 mg/dL
TOTAL PROTEIN [4]: 5.93 G/DL
BASOPHIL [5]: 0%
EOSINOPHIL [5]: 0.67%
ERYTHROCYTE COUNT [5]: 5.98 x10E6/uL
HEMATOCRIT [5]: 36.83%
HEMOGLOBIN [5]: 14.37 G/DL
LEUKOCYTE COUNT [5]: 10.2 x10E3/uL
LYMPHOCYTE [5]: 87.33%
MEAN CORPUSCULAR HEMOGLOBIN [5]: 24.07 pg
MEAN CORPUSCULAR HEMOGLOBIN CONCENTRATION [5]: 39.03 G/DL
MEAN CORPUSCULAR VOLUME [5]: 61.67 fL
MONOCYTE [5]: 0.67%
NEUTROPHIL [5]: 11.33%
PLATELET COUNT [5]: 1408.33 x10E3/uL
ALANINE AMINOTRANSFERASE [5]: 45.67 u/L
ALBUMIN [5]: 3.63 G/DL
ALKALINE PHOSPHATASE [5]: 339 u/L
ASPARTATE AMINOTRANSFERASE [5]: 60.67 u/L
BLOOD UREA NITROGEN [5]: 14 mg/dL
CHLORIDE [5]: 107 MEQ/L
CHOLESTEROL [5]: 70 mg/dL
CREATINE PHOSPHOKINASE [5]: 137.33 u/L
CREATININE [5]: 0.5 mg/dL
GLUCOSE [5]: 170.33 mg/dL
PHOSPHORUS [5]: 10.57 mg/dL
POTASSIUM [5]: 6.17 MEQ/L
SODIUM [5]: 151.33 MEQ/L
TOTAL BILIRUBIN [5]: 0.3 mg/dL
TOTAL PROTEIN [5]: 6 G/DL
BASOPHIL [6]: 0%
EOSINOPHIL [6]: 0%
ERYTHROCYTE COUNT [6]: 7.06 x10E6/uL
HEMATOCRIT [6]: 43.27%
HEMOGLOBIN [6]: 16.87 G/DL
LEUKOCYTE COUNT [6]: 15.07 x10E3/uL
LYMPHOCYTE [6]: 82%
MEAN CORPUSCULAR HEMOGLOBIN [6]: 24 pg
MEAN CORPUSCULAR HEMOGLOBIN CONCENTRATION [6]: 39.07 G/DL
MEAN CORPUSCULAR VOLUME [6]: 61.43 fL
MONOCYTE [6]: 2.67%
NEUTROPHIL [6]: 15.33%
PLATELET COUNT [6]: 1202 x10E3/uL
ALANINE AMINOTRANSFERASE [6]: 39.67 u/L
ALBUMIN [6]: 3.77 G/DL
ALKALINE PHOSPHATASE [6]: 265.33 u/L
ASPARTATE AMINOTRANSFERASE [6]: 77 u/L
BLOOD UREA NITROGEN [6]: 20 mg/dL
CHLORIDE [6]: 111.33 MEQ/L
CHOLESTEROL [6]: 76.33 mg/dL
CREATINE PHOSPHOKINASE [6]: 139.33 u/L
CREATININE [6]: 0.6 mg/dL
GLUCOSE [6]: 166 mg/dL
PHOSPHORUS [6]: 11.47 mg/dL
POTASSIUM [6]: 7 MEQ/L
SODIUM [6]: 158.33 MEQ/L
TOTAL BILIRUBIN [6]: 0.27 mg/dL
TOTAL PROTEIN [6]: 6.3 G/DL
